From ChEMBL document CHEMBL5728472, “Triazolopyrimidine, triazolopyridine compounds, and the composition thereof for treating PRC2-mediated diseases” (2021)

Target: Histone-binding protein RBBP4/Histone-lysine N-methyltransferase EZH2/Polycomb protein EED/Polycomb protein SUZ12 (Homo sapiens, UniProt O75530+Q09028+Q15022+Q15910)
Assay: TR-FRET Assay: The TR-FRET method was used to measure the PRC2 enzyme activity. First, the enzyme was mixed with compounds at different concentrations and incubated for 30 min at room temperature. The biotin-labeled histone H3 peptide substrate and the cofactor S-adenosylmethionine (SAM) were added to initiate the enzymatic reaction. After reaction was performed at room temperature for 4 hour, Acceptor and Donor were added and incubated for half an hour. The multifunctional microplate reader EnVision (Perkin Elmer Inc.) was used to detect the fluorescence signal.
Type: protein-complex assay

Sequence of Histone-binding protein RBBP4/Histone-lysine N-methyltransferase EZH2/Polycomb protein EED/Polycomb protein SUZ12 (Q15910 whole entry): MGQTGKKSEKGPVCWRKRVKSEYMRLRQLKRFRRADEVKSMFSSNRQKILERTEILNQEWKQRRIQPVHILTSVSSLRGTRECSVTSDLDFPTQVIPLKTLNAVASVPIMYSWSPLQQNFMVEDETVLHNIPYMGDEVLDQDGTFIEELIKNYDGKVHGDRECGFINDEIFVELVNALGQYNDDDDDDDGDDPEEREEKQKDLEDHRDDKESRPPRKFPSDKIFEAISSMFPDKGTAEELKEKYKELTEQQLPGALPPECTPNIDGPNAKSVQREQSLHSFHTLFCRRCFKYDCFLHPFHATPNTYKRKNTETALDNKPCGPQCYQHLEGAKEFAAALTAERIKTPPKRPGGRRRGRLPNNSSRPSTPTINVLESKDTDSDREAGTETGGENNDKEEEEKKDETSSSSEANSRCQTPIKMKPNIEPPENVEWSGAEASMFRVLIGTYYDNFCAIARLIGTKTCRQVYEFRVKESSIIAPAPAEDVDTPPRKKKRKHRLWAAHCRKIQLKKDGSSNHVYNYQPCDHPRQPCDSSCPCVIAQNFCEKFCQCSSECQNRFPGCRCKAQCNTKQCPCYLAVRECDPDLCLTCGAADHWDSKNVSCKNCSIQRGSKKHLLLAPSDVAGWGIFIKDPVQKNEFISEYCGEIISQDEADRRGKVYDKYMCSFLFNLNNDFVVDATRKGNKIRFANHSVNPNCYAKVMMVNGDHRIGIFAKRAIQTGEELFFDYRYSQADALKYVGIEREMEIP
Sequence of Histone-binding protein RBBP4/Histone-lysine N-methyltransferase EZH2/Polycomb protein EED/Polycomb protein SUZ12 (O75530 whole entry): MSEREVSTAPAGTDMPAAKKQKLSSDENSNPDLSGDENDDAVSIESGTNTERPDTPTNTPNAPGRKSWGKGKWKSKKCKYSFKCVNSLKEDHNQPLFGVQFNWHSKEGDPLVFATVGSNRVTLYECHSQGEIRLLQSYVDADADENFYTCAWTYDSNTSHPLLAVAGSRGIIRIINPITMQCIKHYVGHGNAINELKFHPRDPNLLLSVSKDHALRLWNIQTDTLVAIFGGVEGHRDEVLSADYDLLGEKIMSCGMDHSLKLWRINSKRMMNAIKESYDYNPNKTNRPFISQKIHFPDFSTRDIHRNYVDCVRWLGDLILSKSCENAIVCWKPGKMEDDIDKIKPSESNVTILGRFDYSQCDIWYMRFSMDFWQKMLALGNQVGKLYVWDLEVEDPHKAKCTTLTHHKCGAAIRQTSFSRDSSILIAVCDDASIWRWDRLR
Sequence of Histone-binding protein RBBP4/Histone-lysine N-methyltransferase EZH2/Polycomb protein EED/Polycomb protein SUZ12 (Q15022 whole entry): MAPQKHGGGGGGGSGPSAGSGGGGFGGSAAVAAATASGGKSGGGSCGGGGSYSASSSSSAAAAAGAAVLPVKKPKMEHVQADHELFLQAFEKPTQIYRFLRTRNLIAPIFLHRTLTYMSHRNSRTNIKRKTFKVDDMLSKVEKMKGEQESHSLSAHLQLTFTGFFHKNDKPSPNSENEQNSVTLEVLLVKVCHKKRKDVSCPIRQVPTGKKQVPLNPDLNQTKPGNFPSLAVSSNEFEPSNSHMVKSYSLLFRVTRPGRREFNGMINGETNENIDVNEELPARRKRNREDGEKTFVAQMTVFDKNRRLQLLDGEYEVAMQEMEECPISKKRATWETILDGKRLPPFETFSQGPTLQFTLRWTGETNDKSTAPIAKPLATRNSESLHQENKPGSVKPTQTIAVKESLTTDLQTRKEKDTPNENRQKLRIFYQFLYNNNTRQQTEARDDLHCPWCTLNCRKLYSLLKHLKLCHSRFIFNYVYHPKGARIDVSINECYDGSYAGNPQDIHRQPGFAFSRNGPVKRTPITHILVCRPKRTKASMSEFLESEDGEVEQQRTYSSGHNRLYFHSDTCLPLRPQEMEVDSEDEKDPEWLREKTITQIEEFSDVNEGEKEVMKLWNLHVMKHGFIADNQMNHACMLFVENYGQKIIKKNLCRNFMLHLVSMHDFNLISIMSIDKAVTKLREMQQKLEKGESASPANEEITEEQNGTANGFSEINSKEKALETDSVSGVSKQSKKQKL
Sequence of Histone-binding protein RBBP4/Histone-lysine N-methyltransferase EZH2/Polycomb protein EED/Polycomb protein SUZ12 (Q09028 whole entry): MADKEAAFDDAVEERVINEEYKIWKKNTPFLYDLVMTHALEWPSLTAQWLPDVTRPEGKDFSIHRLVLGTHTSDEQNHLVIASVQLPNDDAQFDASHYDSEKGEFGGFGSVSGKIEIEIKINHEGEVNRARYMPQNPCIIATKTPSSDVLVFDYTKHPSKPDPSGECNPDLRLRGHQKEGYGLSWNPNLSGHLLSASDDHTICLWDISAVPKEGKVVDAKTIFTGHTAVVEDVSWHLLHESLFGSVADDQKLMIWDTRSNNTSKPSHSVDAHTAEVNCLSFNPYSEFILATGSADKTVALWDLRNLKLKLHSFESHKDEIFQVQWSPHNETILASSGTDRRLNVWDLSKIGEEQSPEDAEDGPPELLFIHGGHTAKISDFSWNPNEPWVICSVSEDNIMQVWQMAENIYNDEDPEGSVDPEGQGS

Compound | IC50 [nM]
COC(=O)N1CC=C(c2cnc(NCc3c(F)ccc4c3CCO4)n3cnnc23)CC1 | 2.5
Fc1ccc2c(c1CNc1ncc(C3=CCNCC3)c3nncn13)CCO2 | 218
